This note sets out measurements from patent publication US9351955B2, “Compounds and pharmaceutical compositions thereof for the treatment of cystic fibrosis” (Galapagos NV, priority 2013, dated 2016).

What all share (type): cell-based
The target of assay [1] is T1, CFTR ΔF508 mutant (Homo sapiens, UniProt P13569, DEL508-508).
T1 construct: expressed in transfected cells; host or cells: CFBE41o- (adenoviral transduction)
The assay is described as follows: YFP-halide influx assay for the CFTR-ΔF508 mutation (96 well, CFBE41o- cells). As to conditions: compounds of the invention, 96 well, forskolin 10.67 μM, read-out: EC50 measured by YFP-halide influx assay for the CFTR-ΔF508. The source says:
6.1. YFP-Halide Influx Assay for the CFTR-ΔF508 Mutation
The YFP halide influx assay measures the functionality of the cystic fibrosis Transmembrane Conductance regulator (CFTR) channels in the cystic fibrosis bronchial epithelium cell line CFBE41o-. The assay is used to evaluate the capacity of compounds to increase the open probability of existing CFTR channels in the membrane. It makes use of the observation that the yellow fluorescent protein (YFP) variant YFP H148Q, I152L has its fluorescence substantially quenched by halide ions like Cl^− and I^−. (Galietta et al., 2001; Nagai et al., 2002)
For this purpose, CFBE410-cells are seeded in 96 well plates (6000 CFBE cells/well). One day after seeding, the CFBE cells are transduced with adenoviral vectors that direct the expression of the CFTR ΔF508 mutant and of the YFP reporter. Cells are incubated at 27° C., 5% CO2 for 24 hours so as to allow for the proper folding and migration to the membrane of the CFTR channel or treated with a CFTR modulator during 24 h at 37° C.
The […] quenching of fluorescence is recorded immediately after injection of I^− for 7 seconds. The capacity of a compound to increase the channel opening is directly correlated with the decrease in fluorescence, and is expressed as (1-(fluorescence after 7 seconds (F)/fluorescence before injection (F0))) and an EC50 can be derived from a (1−F/F0) vs compound concentration plot.

Assay [2] concerns the target T1, CFTR ΔF508 mutant. As to the kind of experiment: YFP-halide influx assay for the CFTR-ΔF508 mutation (384 well, CFBE41o- cells, FDSS/μCell). The following applies: forskolin 10.67 μM, fluorescence after 36 seconds, read-out: EC50 measured by YFP-halide influx assay for the CFTR-ΔF508. The procedure, abridged: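 CFBE41o- cells were adenovirally transduced with ΔF508 CFTR and the YFP H148Q/I152L reporter. Cells were then held 24 h at 27 °C or treated 24 h at 37 °C with a CFTR modulator. Iodide-induced quench was recorded for 2 min, and EC50 was derived from 1−F/F0 at 36 s against compound concentration.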

Assay [3] addresses T2, CFTR G551D mutant (Homo sapiens, UniProt P13569, G551D).
T2 construct: expressed in transfected cells; host or cells: HEK293 (reverse transfection with plasmids)
The assay is described as follows: YFP-halide influx assay for the CFTR-G551D mutation (HEK293 cells). The following applies: HEK293 cells expressing CFTR G551D and YFP reporter; forskolin 10.67 μM; read-out: EC50 measured by YFP-halide influx assay for the CFTR-G551D. The procedure, abridged: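 HEK293 cells reverse-transfected with CFTR G551D and halide-sensitive YFP, expressed 24 h at 37 °C. Iodide-induced fluorescence quench recorded for 7 s after I^− injection; response as 1−F/F0, EC50 from concentration plot.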

SMILES strings stand for the structures.

T1 sequence (P13569 with tags, fused parts or gaps DEL508-508): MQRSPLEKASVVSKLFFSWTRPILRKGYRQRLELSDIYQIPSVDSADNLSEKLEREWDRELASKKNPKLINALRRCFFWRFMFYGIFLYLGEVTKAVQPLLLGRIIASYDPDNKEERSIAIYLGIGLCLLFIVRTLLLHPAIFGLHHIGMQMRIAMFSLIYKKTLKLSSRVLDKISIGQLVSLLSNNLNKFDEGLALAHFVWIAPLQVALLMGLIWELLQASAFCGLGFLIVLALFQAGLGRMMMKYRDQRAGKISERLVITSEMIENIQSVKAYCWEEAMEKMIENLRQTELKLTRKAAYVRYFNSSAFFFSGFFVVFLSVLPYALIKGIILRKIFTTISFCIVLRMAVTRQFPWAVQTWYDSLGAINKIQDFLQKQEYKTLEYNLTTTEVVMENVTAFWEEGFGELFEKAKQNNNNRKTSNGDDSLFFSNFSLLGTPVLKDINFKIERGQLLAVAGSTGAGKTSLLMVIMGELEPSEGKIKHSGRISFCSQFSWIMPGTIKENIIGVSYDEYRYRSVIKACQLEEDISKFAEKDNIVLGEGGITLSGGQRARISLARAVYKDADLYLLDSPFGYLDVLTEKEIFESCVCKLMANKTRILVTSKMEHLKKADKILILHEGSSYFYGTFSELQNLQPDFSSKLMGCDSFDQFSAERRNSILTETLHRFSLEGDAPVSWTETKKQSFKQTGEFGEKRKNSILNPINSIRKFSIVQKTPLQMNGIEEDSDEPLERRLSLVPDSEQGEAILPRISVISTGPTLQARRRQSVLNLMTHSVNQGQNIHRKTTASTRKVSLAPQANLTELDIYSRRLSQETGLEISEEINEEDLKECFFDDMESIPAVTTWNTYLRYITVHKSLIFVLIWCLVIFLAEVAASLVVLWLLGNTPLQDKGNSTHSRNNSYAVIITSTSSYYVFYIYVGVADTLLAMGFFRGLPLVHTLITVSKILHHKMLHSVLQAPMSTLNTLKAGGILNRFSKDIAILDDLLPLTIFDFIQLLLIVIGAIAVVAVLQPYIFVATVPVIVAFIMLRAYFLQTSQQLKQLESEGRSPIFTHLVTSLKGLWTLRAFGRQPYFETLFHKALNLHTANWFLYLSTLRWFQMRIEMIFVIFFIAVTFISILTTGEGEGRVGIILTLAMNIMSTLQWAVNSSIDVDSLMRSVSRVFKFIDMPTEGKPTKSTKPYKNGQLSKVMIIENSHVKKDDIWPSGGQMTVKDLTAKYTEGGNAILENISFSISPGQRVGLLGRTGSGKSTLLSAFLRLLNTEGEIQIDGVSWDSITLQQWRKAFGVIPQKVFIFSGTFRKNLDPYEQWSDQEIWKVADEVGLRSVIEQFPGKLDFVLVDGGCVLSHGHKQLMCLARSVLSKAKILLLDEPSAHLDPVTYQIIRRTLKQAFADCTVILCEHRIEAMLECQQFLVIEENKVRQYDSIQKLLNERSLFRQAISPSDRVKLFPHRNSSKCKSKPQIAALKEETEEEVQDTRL
T2 sequence (P13569 whole entry G551D): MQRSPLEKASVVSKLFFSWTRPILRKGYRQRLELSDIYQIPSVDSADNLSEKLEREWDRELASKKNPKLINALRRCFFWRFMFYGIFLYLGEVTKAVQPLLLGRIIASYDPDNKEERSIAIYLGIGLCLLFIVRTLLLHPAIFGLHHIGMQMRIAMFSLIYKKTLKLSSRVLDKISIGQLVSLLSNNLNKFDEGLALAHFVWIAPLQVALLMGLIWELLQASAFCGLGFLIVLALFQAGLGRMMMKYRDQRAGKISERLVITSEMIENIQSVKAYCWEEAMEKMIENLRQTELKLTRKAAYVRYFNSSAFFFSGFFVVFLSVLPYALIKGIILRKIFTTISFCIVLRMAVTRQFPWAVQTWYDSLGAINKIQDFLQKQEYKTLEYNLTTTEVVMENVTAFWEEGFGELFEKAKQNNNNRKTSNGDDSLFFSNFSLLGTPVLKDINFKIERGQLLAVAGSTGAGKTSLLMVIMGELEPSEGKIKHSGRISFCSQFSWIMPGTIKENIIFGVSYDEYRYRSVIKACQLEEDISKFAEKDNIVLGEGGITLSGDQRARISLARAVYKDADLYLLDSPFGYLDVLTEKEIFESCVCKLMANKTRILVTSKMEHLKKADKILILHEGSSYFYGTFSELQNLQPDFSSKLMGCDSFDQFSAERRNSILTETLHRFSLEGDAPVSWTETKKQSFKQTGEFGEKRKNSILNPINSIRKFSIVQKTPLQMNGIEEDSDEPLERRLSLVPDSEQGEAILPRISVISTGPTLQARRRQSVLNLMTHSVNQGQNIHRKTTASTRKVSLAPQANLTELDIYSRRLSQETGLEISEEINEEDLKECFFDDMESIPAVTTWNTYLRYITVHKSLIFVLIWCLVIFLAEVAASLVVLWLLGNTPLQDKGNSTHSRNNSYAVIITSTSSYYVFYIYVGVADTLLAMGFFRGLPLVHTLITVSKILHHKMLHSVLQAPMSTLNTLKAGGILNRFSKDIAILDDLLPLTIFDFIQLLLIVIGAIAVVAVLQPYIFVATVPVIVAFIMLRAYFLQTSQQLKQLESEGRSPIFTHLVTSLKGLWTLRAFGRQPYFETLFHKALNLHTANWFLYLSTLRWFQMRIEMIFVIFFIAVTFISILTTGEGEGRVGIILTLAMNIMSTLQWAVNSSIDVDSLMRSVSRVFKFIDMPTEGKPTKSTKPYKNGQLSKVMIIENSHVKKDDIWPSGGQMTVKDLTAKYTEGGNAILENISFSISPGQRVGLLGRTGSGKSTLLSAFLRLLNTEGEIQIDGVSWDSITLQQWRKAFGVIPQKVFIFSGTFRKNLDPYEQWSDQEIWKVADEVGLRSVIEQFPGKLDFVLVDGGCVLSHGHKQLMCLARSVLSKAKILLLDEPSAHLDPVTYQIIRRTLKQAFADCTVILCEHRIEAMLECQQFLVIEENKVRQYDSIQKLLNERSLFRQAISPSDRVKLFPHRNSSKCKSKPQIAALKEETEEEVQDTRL

Usually EC50 stands for the concentration that produces a half-maximal response. `CC1(C)Cc2c(sc(NC(=O)c3ccccc3F)c2C(N)=O)C(C)(C)O1` [Compound 1, 2-(2-fluorobenzamido)-5,5,7,7-tetramethyl-5,7-dihydro-4H-thieno[2,3-c]pyran-3-carboxamide]: the EC50 in assay [1] amounted to 12.2 nM; in assay [2], 65.6 nM; in assay [3], 282 nM.

`COC(=O)C1(C(=O)Nc2sc3c(c2C(N)=O)CC(C)(C)OC3(C)C)CC1` [Compound 12, methyl 1-(3-carbamoyl-5,5,7,7-tetramethyl-5,7-dihydro-4H-thieno[2,3-c]pyran-2-ylcarbamoyl)cyclopropanecarboxylate]: the EC50 in assay [1] amounted to 952 nM; in assay [2], 197 nM; in assay [3], 3330 nM.

With `CC1(C)Cc2c(sc(NC(=O)c3ccccc3C(F)(F)F)c2C(N)=O)C(C)(C)O1` [Compound 5, 5,5,7,7-tetramethyl-2-(2-(trifluoromethyl)benzamido)-5,7-dihydro-4H-thieno[2,3-c]pyran-3-carboxamide], the results for the EC50 in assay [1], in assay [2] and in assay [3] were 63.4 nM, 47.8 nM and 764 nM, respectively.

As to `CC1(C)Cc2c(sc(NC(=O)c3ccccc3-c3ncc[nH]3)c2C(N)=O)C(C)(C)O1` [Compound 27, 2-(2-(1H-imidazol-2-yl)benzamido)-5,5,7,7-tetramethyl-5,7-dihydro-4H-thieno[2,3-c]pyran-3-carboxamide], the 50% effective concentration (EC50) was 440 nM in assay [1], 189 nM in assay [2] and 1670 nM in assay [3].

With `Cc1cc(C(=O)Nc2sc3c(c2C(N)=O)CC(C)(C)OC3(C)C)[nH]n1` [Compound 11, N-(3-carbamoyl-5,5,7,7-tetramethyl-5,7-dihydro-4H-thieno[2,3-c]pyran-2-yl)-5-methyl-1H-pyrazole-3-carboxamide], the EC50 was determined as 27.2 nM in assay [1], 12.6 nM in assay [2] and 590 nM in assay [3].

As to `CC1(C)Cc2c(sc(NC(=O)c3cccnc3F)c2C(N)=O)C(C)(C)O1` [Compound 20, N-(3-carbamoyl-5,5,7,7-tetramethyl-5,7-dihydro-4H-thieno[2,3-c]pyran-2-yl)-2-fluoronicotinamide], the figures for the EC50 in assay [1], in assay [2] and in assay [3] were 305 nM, 422 nM and 3290 nM, respectively.

Take `CC1(C)Cc2c(sc(NC(=O)c3ccc(F)cc3C(F)(F)F)c2C(N)=O)C(C)(C)O1` [Compound 7, 2-(4-fluoro-2-(trifluoromethyl)benzamido)-5,5,7,7-tetramethyl-5,7-dihydro-4H-thieno[2,3-c]pyran-3-carboxamide]: the results for the EC50 in assay [1], in assay [2] and in assay [3] were 60.2 nM, 70.3 nM and 1090 nM, respectively.

As for `CCc1n[nH]c(C(=O)Nc2sc3c(c2C(N)=O)CC(C)(C)OC3(C)C)c1C` [Compound 19, N-(3-carbamoyl-5,5,7,7-tetramethyl-5,7-dihydro-4H-thieno[2,3-c]pyran-2-yl)-3-ethyl-4-methyl-1H-pyrazole-5-carboxamide], the figures for the EC50 in assay [1], in assay [2] and in assay [3] were 41.8 nM, 7.33 nM and 357 nM, respectively.

As for `CC1(C)Cc2c(sc(NC(=O)c3[nH]nc4c3COC4)c2C(N)=O)C(C)(C)O1` [Compound 37, N-(3-carbamoyl-5,5,7,7-tetramethyl-5,7-dihydro-4H-thieno[2,3-c]pyran-2-yl)-4,6-dihydro-1H-furo[3,4-c]pyrazole-3-carboxamide], the EC50 in assay [1] was found to be 16 nM; in assay [2], 25.4 nM; in assay [3] it was 892 nM.

Regarding `CC1(C)Cc2c(sc(NC(=O)c3cc(C(C)(C)C)[nH]n3)c2C(N)=O)C(C)(C)O1` [Compound 16, 5-tert-butyl-N-(3-carbamoyl-5,5,7,7-tetramethyl-5,7-dihydro-4H-thieno[2,3-c]pyran-2-yl)-1H-pyrazole-3-carboxamide], the EC50 was found to be 25.3 nM in assay [1], 90.8 nM in assay [2] and 5250 nM in assay [3].

As to `CC1(C)Cc2c(sc(NC(=O)c3nnc[nH]3)c2C(N)=O)C(C)(C)O1` [Compound 18, N-(3-carbamoyl-5,5,7,7-tetramethyl-5,7-dihydro-4H-thieno[2,3-c]pyran-2-yl)-1H-1,2,4-triazole-3-carboxamide], the concentration for a half-maximal effect (EC50) in assay [1] came out at 829 nM; in assay [2], 467 nM; in assay [3], 3330 nM.

For `CC1(C)Cc2c(sc(NC(=O)c3ccc(F)cc3F)c2C(N)=O)C(C)(C)O1` [Compound 8, 2-(2,4-difluorobenzamido)-5,5,7,7-tetramethyl-5,7-dihydro-4H-thieno[2,3-c]pyran-3-carboxamide], the values for the 50% effective concentration (EC50) in assay [1], in assay [2] and in assay [3] were 22.8 nM, 27.3 nM and 308 nM, respectively.

Regarding `CC1(C)Cc2c(sc(NC(=O)c3ccccc3O)c2C(N)=O)C(C)(C)O1` [Compound 3, 2-(2-hydroxybenzamido)-5,5,7,7-tetramethyl-5,7-dihydro-4H-thieno[2,3-c]pyran-3-carboxamide], the EC50 is 4.4 nM in assay [1], 6.46 nM in assay [2] and 162 nM in assay [3].

Consider `CC1(C)Cc2c(sc(NC(=O)c3ccccc3NS(C)(=O)=O)c2C(N)=O)C(C)(C)O1` [Compound 28, 5,5,7,7-tetramethyl-2-(2-(methylsulfonamido)benzamido)-5,7-dihydro-4H-thieno[2,3-c]pyran-3-carboxamide], for which the EC50 in assay [1] amounted to 378 nM; in assay [2], 147 nM; in assay [3], 2000 nM.

On to `CCc1[nH]nc(C(=O)Nc2sc3c(c2C(N)=O)CC(C)(C)OC3(C)C)c1Cl` [Compound 36, N-(3-carbamoyl-5,5,7,7-tetramethyl-5,7-dihydro-4H-thieno[2,3-c]pyran-2-yl)-4-chloro-5-ethyl-1H-pyrazole-3-carboxamide], for which the EC50 is 13 nM in assay [1], 12.4 nM in assay [2] and 716 nM in assay [3].

For the compound `CC1(C)Cc2c(sc(NC(=O)c3cccnc3O)c2C(N)=O)C(C)(C)O1` [Compound 23, N-(3-carbamoyl-5,5,7,7-tetramethyl-5,7-dihydro-4H-thieno[2,3-c]pyran-2-yl)-2-oxo-1,2-dihydropyridine-3-carboxamide], the EC50 in assay [1] is 102 nM; in assay [2], 190 nM; in assay [3], 1270 nM.

In the case of `CC1(C)Cc2c(sc(NC(=O)c3n[nH]c4c3COCC4)c2C(N)=O)C(C)(C)O1` [Compound 32, N-(3-carbamoyl-5,5,7,7-tetramethyl-5,7-dihydro-4H-thieno[2,3-c]pyran-2-yl)-1,4,6,7-tetrahydropyrano[4,3-c]pyrazole-3-carboxamide], the results for the EC50 in assay [1], in assay [2] and in assay [3] were 23 nM, 39.6 nM and 854 nM, respectively.
